Here are results for 5 molecules from US6511967B1, “Use of an internalizing transferrin receptor to image transgene expression” (The General Hospital Corporation, priority 1999, dated 2003).

For series [1], the system named is ETR+ and ETR− tumors. The series is described as follows: Biodistribution of labeled reporter complex in excised ETR+ and ETR− tumors. Format: in vivo, nude mice. As to the method: A similar 4-fold difference was also observed when In labeled Tf was injected into these animals. The same assay can be used to analyze the biodistribution of other new reporter complexes.
First, rat 9L gliosarcoma cells (Brain Tumor Research Center, San Francisco, Calif.) were grown in Dulbecco's modified Eagle's medium (DMEM, Cellgro, Mediatech, Washington, D.C.) containing 10% fetal bovine serum (FBS, Cellgro).
Then, ETR− and ETR+ tumors were grown in nude mice by injecting […] cells of either cell line into the left and right flanks of animals (n=12). Each animal was implanted with both tumors in each flank so that it could serve as its own control. Animals were used for histology, MR, and/or biodistribution studies 10 to 14 days after tumor inoculation. The growth characteristics of the tumors were similar and by day 12 all animals had developed tumors 200-400 mg in size.

The test system of a further series is Gli36#6. Nature of the series: In vitro MR imaging of Gli36#6 cells infected with PETZ amplicon and incubated with Tf-MION (FIG. 10A). Conditions: 10 μg Tf-MION. The class given is cell-based. As to the method:
In this figure, concentration labels refer to the amount of iron molecules added to the sample. […] Following infection, the cells were allowed to recover and were washed, pelleted, and imaged at room temperature as follows: SE (Spin Echo): TR 3000 ms, multiecho with TE 25, 50, 75, 100ms. Slice thickness 1.9 mm, field of view 8 cm, matrix 256×256, 2 NEX, scan time 26:12 minutes.

Series [2] concerns ETR+ and ETR− tumors. Nature of the series: In vivo MR imaging of mice with ETR+ and ETR− tumors after intravenous Tf-MION. More on the design: species or system nude mice. Conditions: then tumoral signal intensity returned to baseline. As to the method: MR imaging was performed in live animals using a 1.5 T superconducting magnet (Signa 5.0; GE Medical Systems, Milwaukee, Wis.) using a 5-inch surface coil. […] Slice thickness was 3 mm. The field of view (FOV) was 10 cm^2, using a 256×256 imaging matrix and 2-4 acquisition averages. Signal intensity (SI) measurements were obtained in regions of interest (ROI) from tumor and background. To display MION-Tf induced changes, R2 maps of tumors calculated from spin echo images were superimposed on anatomic maps (T1 weighted images). Semiquantitation was done by calibrating R2 maps to known concentrations of radiolabeled superparagmagnetic probes.

The subject of another series is 9L3.9 cells. The series is described as follows: In vitro MR imaging of 9L3.9 cell pellets incubated with reporter complexes (FIG. 7). Format: cell-based, rat. Conditions: spin echo MR imaging. On the procedure:
Concentration labels in FIG. 7 refer to the amount of iron (reporter complex) added to the sample.
Incubations of the reporter complexes with the cells were carried out at 37° C. The cells were washed and pelleted, and pellets were imaged in microfuge test tubes at room temperature as follows: SE (Spin Echo): TR 3000 ms, multi-echo with TE 25, 50, 75, 100 ms. Slice thickness was 1.9 mm, field of view 8 cm, matrix 256×256, 2 NEX, scan time 26:12 minutes. As shown at the top row in the figure, the Tf-SPDP-CLIO contrast agent provided a change in measured signal at far lower concentrations of the reporter complex.

Series [3] concerns Gli36EGFR cells. As to the method: Gli36EGFR cells were plated at approximately 10% confluency. Cells were infected the next day (MOI=5) with either one of three amplicons: EZ-TFR (FIG. 12), which was a control having a transferrin receptor gene, but lacking a p450 gene; EZ-p450 (FIG. 11), which was a second control with a p450 gene but no transferrin receptor gene; or PETZ (FIG. 8), which includes both the p450 and transferrin receptor genes. Following a 24 hour incubation with the viral amplicons, cyclophosphamide (CPA) was added in varying concentrations as indicated in the graph of FIG. 13. CPA is a chemotherapeutic compound that is metabolized by the expression product of the p450 gene (cyp2B1 in the rat). Cleavage of CPA yields an active metabolite, which is toxic to the cancer cells. Cell number was measured 72 hours later using a Coulter Counter. The data are presented in the graph in FIG. 13 as a percentage of control, where control cells are virally infected cells in the absence of CPA.

In series [4] the test system is Gli36EGFR cells. Nature of the series: In vitro MR imaging of Gli36EGFR cells infected with PETZ amplicon and labeled with Tf-SPDP-CLIO (FIG. 10B). Conditions: MOI 20 or 4; 2 hours at 37° C.; especially at MOI of 20. Format: cell-based. As to the method:
In another similar experiment, in vitro MR imaging was used to analyze viral transfer of the transferrin receptor and labeling with Tf-SPDP-CLIO. Gli36EGFR cells were uninfected or infected with an HSV-based amplicon (PETZ) driving expression of an altered form of the transferrin receptor (Multiplicity of Infection (MOI) of 20 or 4). After 24 hours, the cells were incubated with the indicated concentrations of Tf-SPDP-CLIO for 2 hours at 37° C. Following incubation, cells were harvested, washed, and pelleted for imaging at room temperature. As a control for non-specific uptake of unconjugated CLIO, infected and uninfected cells were also incubated in a similar fashion with 50 μg of CLIO alone. Concentration numbers along the top of the figure refer to the amount of iron added to the sample in the form of Tf-SPDP-CLIO. The ratio of Tf conjugated to CLIO for Tf-SPDP-CLIO was 4:1. […] The MR imaging conditions were as follows: SE (Spin Echo); TR 3000 ms, multiecho with TE 25, 50, 75, 100 ms. Slice thickness 1.9 mm, field of view 8 cm, matrix 256×256, 2 NEX, scan time 26:12 minutes.

Series [5] relates to Gli36EGFR tumors infected with PETZ. Nature of the series: In vivo MR imaging of gene transfer in bilateral Gli36EGFR brain tumors (FIG. 9). More on the design: species or system nude mice. Conditions: 24 hours after tail-vein injection, 1 mg/kg; 3-D gradient echo. The source says: In another example of imaging of in vivo gene transfer, Gli36EGFR cells were implanted into nude mice 8 days prior to imaging to generate bilateral frontal tumors. On day 6 after implantation, tumors on the right were infected with the HSV-based amplicon PETZ (FIG. 8), which drives expression of an altered form of the TfR. Forty-eight hours after virus administration animals were imaged without contrast agent (T1-weighted pre-contrast scan; FIG. 9A) and then injected with Tf-SPDP-CLIO.
All contrast agents were injected by tail-vein administration (1 mg/kg Tf-SPDP-CLIO). Scans: (9A) T1 SE 300/16, FOV 8 cm, 256×256, 1.9 thk/0.2 spc; (9B) T1 SE [Omniscan], and (9C) T2 3D GR 38/20/5°, FOV 10 cm, 256×256, 0.5 thk/0.0 spc. [Tf-SPDP-CLIO.

On to “In labeled Tf: transferrin labeled with In (radioisotope) [reference compound]”, for which the “difference in tumor accumulation, ETR+ vs ETR− tumors” value in the series on ETR+ and ETR− tumors [1] (ETR+ vs ETR− tumors) is around 4 fold.

Consider “Tf-MION: human holo-transferrin covalently conjugated to dextran coated monocrystalline iron oxide nanoparticles by the periodate method”, for which, in the series with Gli36#6, the “change of MR signal of cell pellet due to TfR expression after PETZ infection” value is on record as “dramatically altered the MR signal”. In the series with ETR+ and ETR− tumors [1] (24 hours after IV administration), the “mean accumulation in ETR+ tumors” value amounted to 3.2 % ID/g. The “mean accumulation in ETR− tumors” value in the series with ETR+ and ETR− tumors [1] (24 hours after IV administration, same animal) is given as 0.8 % ID/g. Further, the “persistence of MR signal intensity differences of tumors” value with ETR+ and ETR− tumors [2] is on record as “approximately 7 days”.

On to “Tf-CLIO: holo-Tf conjugated to cross-linked iron oxide nanoparticles (CLIO) using the periodate method”, for which, in the series with 9L3.9 cells, the “contrast compared with the other reporter complexes” value is listed as “better than the Tf-MION, but not as good as the Tf-SPDP-CLIO”.

Take `O=P1(N(CCCl)CCCl)NCCCO1` (stereo not drawn) [CPA, cyclophosphamide]: the “cells alive, percent of control, no amplicon” value in the series on Gli36EGFR cells [3] (10^3 μM CPA, 72 hours) is “about 80%”. In addition, in the series on Gli36EGFR cells [3] (10^3 μM CPA, 72 hours, MOI=5), the “cells alive, percent of control, EZ-TFR amplicon” value is “about 80%” and the “cells alive, percent of control, PETZ amplicon” value is on record as “less than 10%”. Also, the “CPA concentration from which cell killing is significantly increased” value in the series with Gli36EGFR cells [3] (PETZ and EZ-p450 amplicons) is listed as 10^1 μM.

Take “Tf-SPDP-CLIO: holo-Tf conjugated to CLIO using the crosslinking agent N-succinimidyl 3-(2-pyridyldithio) propionate (SPDP)”: the “change in MRI following infection with amplicons expressing the altered transferrin receptor” value in the series with Gli36EGFR cells [4] is “dramatic change in MRI at lower concentrations of iron”. Also, the “appearance of PETZ-infected tumor in MR image” value in series [5] is “dark mass”.
